Measurements published in patent publication US20220168310A1, “INHIBITION OF ADENOVIRUS WITH FILOCICLOVIR” (Microbiotix, Inc., priority 2019, published 2022).
“Also recorded” adds a separate entry of the source.

Key:
adenovirus 6 (AdV6) = experiment: CPE reduction assay, adenovirus 6; assay type: cell-based, human adenovirus
Experimental: Similar experiments were carried out with filociclovir against adenovirus 6, adenovirus 7, and adenovirus 8.

Human AdV6 = experiment: High dose filociclovir against intravenously administered AdV6 in immunosuppressed hamsters (Example 5); settings: for mortality: p=0.0124 vs AdV6+Vehicle; for virus burden in the liver: TCID50
Experimental: Four dose levels were tested: 10, 30, 60, and 100 mg/kg p.o. q.d. The highest dose was determined based on rat toxicology data.
All hamsters were immunosuppressed using cyclophosphamide (CP). CP was administered intraperitoneally at a dose of 140 mg/kg, and then twice weekly at a dose of 100 mg/kg.
Filociclovir, in powdered form, was suspended in 0.4% carboxymethyl cellulose (Sigma C5678) at 1, 3, 6, and 10 mg/ml and sonicated to visual homogeneity and aliquots stored at 4° C. Aliquots were allowed to equilibrate to room temperature before dosing. Hamsters weighing approximately 100 g were dosed with a 1 ml volume of the appropriate suspension for the 10, 30, 60, and 100 mg/kg dose levels. References to “vehicle” refers to 0.4% carboxymethyl cellulose
The hamsters were divided into 8 groups, 15 hamsters/group, (with the exception of Group 2, which had only 5 hamsters; see Table 3), immunosuppressed, and then injected i.v. with vehicle (Groups 1-2) or 2×10^10 PFU/kg of AdV6 (Groups […]). Groups 1 and 3 received drug vehicle (p.o. q.d.), Group 4 received 10 mg/kg filociclovir (p.o. q.d.), Group 5 received 30 mg/kg filociclovir (p.o. q.d.), Group 6 received 60 mg/kg filociclovir (p.o. q.d.), Groups 2 and 7 received 100 mg/kg filociclovir (p.o. q.d.), and Group 8 received cidofovir (20 mg/kg, 3 times weekly). For all groups, drug administration started 1 day before challenge, and continued according to the schedule above for the duration of the study.
The body weights and any signs of morbidity of the animals were recorded daily. At 5 days post challenge, 5 hamsters (designated at the start of the experiment) from each group (with the exception of Group 2) were sacrificed, and gross pathological observation was performed. Serum and liver samples were collected and the virus burden in liver was determined by a TCID50 assay, and the serum was analyzed for transaminase levels. The remaining 10 hamsters were sacrificed at 14 days post challenge. Hamsters that became visually moribund before Day 14 were sacrificed as needed. In addition to the hamsters observed to be moribund, all hamsters that lost more than 20% of their original body weight were also sacrificed. For the hamsters sacrificed at the conclusion of the experiment and those sacrificed as moribund, serum and liver tissues were collected and banked for possible determination of serum transaminase levels and virus burden in the liver. Liver tissue was preserved in formalin for possible histopathological examination.

AdV6 [1] = experiment: Immunofluorescence assay (DBP and hexon staining), AdV6-infected A549 cells; assay type: cell-based, human adenovirus; settings: 27 hours post-infection
Experimental: Human A549 cells on glass coverslips in 6-well plates were infected at an MOI of 5 PFU/cell with either AdV5 or AdV6 or were mock-infected. After 1 hour, filociclovir was added to a final concentration of 0, 4, 10, or 40 μM. At 27 hours post-infection, the A549 cells were fixed in paraformaldehyde (3.7% in PBS) and permeabilized with methanol. Cells were stained for the Adenovirus DNA-binding protein and adenovirus hexon. DBP staining will be […] and uniform during early AdV infection (prior to AdV DNA replication). DBP associates with replication centers as the infection progresses. The replication centers are initially small “dots” (each dot results from one incoming AdV genome). The replication centers will expand and “multiply” as DNA replication takes place. The nuclei become enlarged and misshapen as infection progresses. AdV hexon, the most abundant component of the AdV viral capsid, is not expressed until after DNA replication is taking place and is therefore considered to be a “late” AdV protein.

AdV6 [2] = experiment: Delayed treatment with 10 mg/kg filociclovir after AdV6 challenge in immunosuppressed hamsters (Example 7); assay type: in vivo, Syrian hamsters
Experimental: Aliquots are allowed to equilibrate to room temperature before dosing.
Hamsters were distributed into 8 groups, 15 hamsters each (Table 5), immunosuppressed as described above, and then injected i.v. with vehicle or 4×10^10 plaque forming units (PFU) of AdV6 per kg. Filociclovir was administered p.o. at 10 mg/kg q.d., starting at one day before, or 1, 2, 3, or 4 days after AdV6 injection.
Body weights and any signs of morbidity in the hamsters were recorded daily. At 7 days post challenge, 5 hamsters from each group (designated at the start of the experiment) were sacrificed, and gross pathological observations were performed.

adenovirus 19 (AdV19) = experiment: Efficacy against adenovirus 19 (data not shown)
adenovirus = experiment: Dose-dependent inhibition of adenovirus infection (summary statement); assay type: cell-based; settings: unidentified adenovirus

## Nc1nc2c(ncn2/C=C2/CC2(CO)CO)c(=O)[nH]1 [FCV, 2-amino-9-{(Z)-[2,2-bis(hydroxymethyl)cyclopropylidene]methyl}-3,9-dihydro-6H-purin-6-one]
Adenovirus 6 (AdV6)
  CC50/EC50: 27
Adenovirus 6 (AdV6); Human mastadenovirus C, unit not given in Table 2 (Table 1 in μM)
  EC50: 3.67 µM
Human AdV6; 10 mg/kg p.o. q.d.
  body weight loss: reversed
  mortality: prevented mortality
Human AdV6; 10 mg/kg, 5 days post challenge
  virus burden in the liver: one animal in the AdV6+10 mg/kg filociclovir group with a very low liver virus burden
Human AdV6; 30 mg/kg p.o. q.d.
  body weight loss: reversed
  mortality: prevented mortality
Human AdV6; 30 mg/kg, 5 days post challenge
  virus burden in the liver: nondetectable level
Human AdV6; 60 mg/kg p.o. q.d.
  toxicity for AdV6-infected hamsters: toxic
Human AdV6; 100 mg/kg p.o. q.d.
  toxicity for AdV6-infected hamsters: toxic
Human AdV6; 5 days post challenge, filociclovir p.o. q.d. groups, CDV 20 mg/kg 3 times weekly
  animals with elevated serum transaminase levels (ALT): none
Human AdV6; AdV6+60 mg/kg
  kidney pathology at day 5 sacrifice: extensive kidney pathology
Human AdV6; AdV6+100 mg/kg
  kidney pathology at day 5 sacrifice: extensive kidney pathology
AdV6 [1]; AdV6, 4 μM
  hexon-positive cells: Some hexon-positive cells
AdV6 [1]; AdV6, 10 μM
  hexon-positive cells: extremely few hexon-positive cells
AdV6 [1]; AdV6, 40 μM
  hexon-positive cells: No hexon-positive cells
AdV6 [2]; 10 mg/kg p.o. q.d. started day −1, +1, +2, +3 (p=0.0005) or +4 (p=0.0023) vs AdV6+Vehicle, listed as filociclovir
  morbidity and mortality (survival): efficacious; also recorded: effective to prevent morbidity and mortality
AdV6 [2]; 10 mg/kg p.o. q.d., up to 4 days post-infection
  prevention of pathology caused by intravenous AdV6 infection: safe and effective
AdV6 [2]; 10 mg/kg, start 4 days post challenge
  AdV6 replication in the liver: inhibits AdV6 replication in the liver
AdV6 [2]; 10 mg/kg, start up to 4 days post challenge, day +4 p=0.1452
  liver pathology, transaminase (ALT) levels: mitigates liver pathology
Adenovirus 19 (AdV19)
  treat or prevent infection: effective
adenovirus
  IC50: ≤ 5 µM
